Measurements reported in ChEMBL document CHEMBL1123679, “5-Quinone derivatives of 2'-deoxyuridine 5'-phosphate: inhibition and inactivation of thymidylate synthase, antitumor cell, and antiviral studies” (J Med Chem, 1987).

Legend:
[1] = target: T1, Thymidylate synthase (Lactobacillus casei) (UniProt P00469); experiment: Kinetic constant for the inactivation of Lactobacillus casei thymidylate synthase was determined at 10 uM concentration using 0 uM of substrate; settings: Lacticaseibacillus casei
T1 sequence (whole entry): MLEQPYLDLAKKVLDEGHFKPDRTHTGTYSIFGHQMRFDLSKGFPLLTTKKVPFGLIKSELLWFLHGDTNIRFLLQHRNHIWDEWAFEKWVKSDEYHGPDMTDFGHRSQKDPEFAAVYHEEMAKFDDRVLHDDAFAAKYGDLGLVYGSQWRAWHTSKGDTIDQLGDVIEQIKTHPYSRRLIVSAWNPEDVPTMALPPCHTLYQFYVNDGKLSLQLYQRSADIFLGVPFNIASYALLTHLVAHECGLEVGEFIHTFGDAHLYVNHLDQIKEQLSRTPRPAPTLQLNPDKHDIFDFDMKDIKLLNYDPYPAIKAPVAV

[2] = Apparent second order rate constant determined as the ratio of kinact/Ki
[3] = target: T1, Thymidylate synthase (Lactobacillus casei); experiment: Kinetic constant for inactivation of Lactobacillus casei thymidylate synthase from double reciprocal plots; settings: Lacticaseibacillus casei
[4] = target: T1, Thymidylate synthase (Lactobacillus casei); settings: Lacticaseibacillus casei
[5] = target: T1, Thymidylate synthase (Lactobacillus casei); settings: Lacticaseibacillus casei; 10 uM
[6] = target: T1, Thymidylate synthase (Lactobacillus casei); settings: Lacticaseibacillus casei; remark: listed apart in the source
[7] = target: T1, Thymidylate synthase (Lactobacillus casei); settings: Lacticaseibacillus casei; remark: listed apart in the source
[8] = target: T1, Thymidylate synthase (Lactobacillus casei); settings: Lacticaseibacillus casei; remark: listed apart in the source
[9] = target: T1, Thymidylate synthase (Lactobacillus casei); settings: Lacticaseibacillus casei; remark: listed apart in the source
[10] = target: T1, Thymidylate synthase (Lactobacillus casei); settings: Lacticaseibacillus casei; remark: listed apart in the source
[11] = target: T1, Thymidylate synthase (Lactobacillus casei); settings: Lacticaseibacillus casei; remark: listed apart in the source
[12] = target: T1, Thymidylate synthase (Lactobacillus casei); settings: Lacticaseibacillus casei; remark: listed apart in the source

Q: Which k obs [1] does the source give for `CC1=C(C)C(=O)C(c2cn([C@H]3C[C@H](O)[C@@H](CO)O3)c(=O)[nH]c2=O)=CC1=O` here?
A: 4e-05 s⁻¹

Q: For `O=C1C=CC(=O)C(c2cn([C@H]3C[C@H](O)[C@@H](COP(=O)(O)O)O3)c(=O)[nH]c2=O)=C1`, which Ratio [2] is on record?
A: 3.2

Q: And the K inact [3]?
A: 0.065 s⁻¹

Q: For `CC1=C(C)C(=O)C(c2cn([C@H]3C[C@H](O)[C@@H](COP(=O)(O)O)O3)c(=O)[nH]c2=O)=C(C)C1=O`, which K inact [4] is on record?
A: 0.014 s⁻¹

Q: And the K obs / s [5]?
A: 0.0084

Q: Which k obs [6] does the source give for `CC1=C(C)C(=O)C(c2cn([C@H]3C[C@H](O)[C@@H](COP(=O)(O)O)O3)c(=O)[nH]c2=O)=CC1=O` here?
A: 0.011 s⁻¹

Q: What about the K inact [4] of the same molecule?
A: 0.015 s⁻¹

Q: And the Ratio [2]?
A: 2.5

Q: And the k obs [7]?
A: 0.011 s⁻¹

Q: And the k obs [8]?
A: 0.0028 s⁻¹

Q: And the k obs [9]?
A: 0.0092 s⁻¹

Q: And the k obs [10]?
A: 0.0066 s⁻¹

Q: What about the k obs [11] of the same molecule?
A: 0.0052 s⁻¹

Q: And the k obs [12]?
A: 0.015 s⁻¹
